We go through 18 compounds from ChEMBL document CHEMBL3997794, “Design and synthesis of benzodiazepine analogs as isoform-selective human lysine deacetylase inhibitors” (Eur J Med Chem, 2017).

One may read the IC50 as the concentration that gives 50% inhibition. Low values mean inhibition by little substance, high ones a need for much substance. By inhibition is commonly meant the relative decrease from the control value, in per cent.

Molecules are shown by their SMILES.

Test [1] has as its target T1, Protein deacetylase HDAC6 (Homo sapiens, UniProt Q9UBN7).
T1 sequence (Q9UBN7 whole entry): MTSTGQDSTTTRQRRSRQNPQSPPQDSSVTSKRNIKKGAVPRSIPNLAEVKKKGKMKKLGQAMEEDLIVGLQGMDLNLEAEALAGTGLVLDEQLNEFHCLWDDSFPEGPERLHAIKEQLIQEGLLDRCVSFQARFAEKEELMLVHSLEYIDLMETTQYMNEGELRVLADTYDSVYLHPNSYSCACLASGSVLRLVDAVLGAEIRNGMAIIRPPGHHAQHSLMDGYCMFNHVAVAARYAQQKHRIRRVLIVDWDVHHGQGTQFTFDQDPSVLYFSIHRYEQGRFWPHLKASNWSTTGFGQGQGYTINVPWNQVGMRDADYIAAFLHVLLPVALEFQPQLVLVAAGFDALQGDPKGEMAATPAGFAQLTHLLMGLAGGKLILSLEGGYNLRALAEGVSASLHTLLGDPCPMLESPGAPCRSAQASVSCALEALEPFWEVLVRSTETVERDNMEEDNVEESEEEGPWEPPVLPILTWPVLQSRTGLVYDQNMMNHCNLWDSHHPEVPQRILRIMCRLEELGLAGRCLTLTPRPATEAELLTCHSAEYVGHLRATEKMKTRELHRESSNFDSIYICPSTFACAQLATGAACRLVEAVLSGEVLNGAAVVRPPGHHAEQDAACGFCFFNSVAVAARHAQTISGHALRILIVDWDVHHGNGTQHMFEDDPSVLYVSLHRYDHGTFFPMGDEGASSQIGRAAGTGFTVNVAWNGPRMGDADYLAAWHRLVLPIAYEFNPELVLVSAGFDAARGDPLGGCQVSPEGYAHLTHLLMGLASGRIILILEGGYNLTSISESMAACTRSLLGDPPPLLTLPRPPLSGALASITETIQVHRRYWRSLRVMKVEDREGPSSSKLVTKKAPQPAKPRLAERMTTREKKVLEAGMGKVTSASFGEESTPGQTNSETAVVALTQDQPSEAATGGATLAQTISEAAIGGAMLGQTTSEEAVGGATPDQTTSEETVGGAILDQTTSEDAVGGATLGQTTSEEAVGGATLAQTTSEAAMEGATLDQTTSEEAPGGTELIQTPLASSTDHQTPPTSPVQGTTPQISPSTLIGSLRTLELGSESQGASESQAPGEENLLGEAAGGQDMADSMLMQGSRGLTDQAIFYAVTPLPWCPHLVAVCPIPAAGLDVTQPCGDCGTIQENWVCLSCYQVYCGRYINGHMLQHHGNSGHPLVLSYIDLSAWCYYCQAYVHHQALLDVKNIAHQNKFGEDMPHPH
The experiment in a line: Inhibition of human KDAC6 using FITC-labeled histone H4 acetylated peptide as substrate after 60 mins by fluorescence assay.

Test [2] deals with T2, Histone deacetylase 1 (Homo sapiens, UniProt Q13547). Briefly: Inhibition of human KDAC1 at 30 uM using substrate A after 60 mins by fluorescence assay relative to control.
T2 sequence (Q13547 whole entry): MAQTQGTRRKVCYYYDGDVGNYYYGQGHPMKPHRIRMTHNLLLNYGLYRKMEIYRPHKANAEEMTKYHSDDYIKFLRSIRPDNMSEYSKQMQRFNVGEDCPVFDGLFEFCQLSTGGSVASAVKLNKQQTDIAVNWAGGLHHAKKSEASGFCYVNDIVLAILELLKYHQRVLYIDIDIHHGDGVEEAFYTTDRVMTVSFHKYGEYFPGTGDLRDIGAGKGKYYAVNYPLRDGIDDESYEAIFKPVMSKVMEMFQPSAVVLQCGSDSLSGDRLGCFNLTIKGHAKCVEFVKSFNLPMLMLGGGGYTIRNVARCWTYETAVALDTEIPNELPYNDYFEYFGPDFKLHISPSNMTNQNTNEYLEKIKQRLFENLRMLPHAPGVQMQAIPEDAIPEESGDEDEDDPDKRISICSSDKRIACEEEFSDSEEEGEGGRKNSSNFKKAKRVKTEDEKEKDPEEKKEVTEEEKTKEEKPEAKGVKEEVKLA
The target of test [3] is T3, Histone deacetylase 3 (Homo sapiens, UniProt O15379). Briefly: Inhibition of human KDAC3 at 30 uM using FITC-labeled p53 acetylated peptide as substrate after 60 mins by fluorescence assay relative to control.
T3 sequence (O15379 whole entry): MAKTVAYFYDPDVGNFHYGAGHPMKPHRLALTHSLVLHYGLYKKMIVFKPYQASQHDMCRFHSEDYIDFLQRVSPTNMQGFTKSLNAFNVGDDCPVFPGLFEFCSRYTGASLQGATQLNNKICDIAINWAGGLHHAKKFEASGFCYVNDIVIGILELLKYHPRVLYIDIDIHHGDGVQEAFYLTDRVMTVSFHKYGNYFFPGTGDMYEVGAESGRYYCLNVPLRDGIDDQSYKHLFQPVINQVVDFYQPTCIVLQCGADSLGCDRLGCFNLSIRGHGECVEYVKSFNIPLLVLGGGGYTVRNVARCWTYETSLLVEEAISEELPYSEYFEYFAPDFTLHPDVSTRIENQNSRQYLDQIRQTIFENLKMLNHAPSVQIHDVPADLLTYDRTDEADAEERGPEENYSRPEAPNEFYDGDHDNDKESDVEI
The target in test [4] is T4, Protein deacetylase HDAC6 (Homo sapiens) (UniProt Q9UBN7).
T4 sequence (whole entry): T1 sequence (Q9UBN7 whole entry)
Particulars: at 30 µM.
Description: Inhibition of human KDAC6 at 30 uM using FITC-labeled histone H4 acetylated peptide as substrate after 60 mins by fluorescence assay relative to control

Test [5] addresses T5, Histone deacetylase 8 (Homo sapiens) (UniProt Q9BY41).
T5 sequence (whole entry): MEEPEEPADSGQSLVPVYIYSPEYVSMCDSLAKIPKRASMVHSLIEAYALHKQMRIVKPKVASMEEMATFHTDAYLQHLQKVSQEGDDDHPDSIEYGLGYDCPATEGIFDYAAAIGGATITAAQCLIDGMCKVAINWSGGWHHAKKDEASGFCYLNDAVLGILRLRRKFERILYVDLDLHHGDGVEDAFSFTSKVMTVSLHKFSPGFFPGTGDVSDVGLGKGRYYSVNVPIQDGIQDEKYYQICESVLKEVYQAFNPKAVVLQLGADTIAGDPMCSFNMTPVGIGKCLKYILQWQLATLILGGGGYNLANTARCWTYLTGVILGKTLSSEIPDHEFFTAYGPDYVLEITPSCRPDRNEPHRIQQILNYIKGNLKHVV
The experiment in a line: Inhibition of human KDAC8 at 30 uM after 60 mins by fluorescence assay relative to control.

The target of test [6] is T3, Histone deacetylase 3. Briefly: Inhibition of human KDAC3 using FITC-labeled p53 acetylated peptide as substrate after 60 mins by fluorescence assay.
Test [7] addresses T2, Histone deacetylase 1. Briefly: Inhibition of human KDAC1 using substrate A after 60 mins by fluorescence assay.
For a further test, the target named is T6, Histone deacetylase 8 (Homo sapiens, UniProt Q9BY41).
T6 sequence (Q9BY41 whole entry): T5 sequence (whole entry)
The experiment in a line: Inhibition of human KDAC8 after 60 mins by fluorescence assay.

As for `CC(C)[C@@H]1N=C(c2ccccc2)c2ccccc2N(CCCCC(=O)O)C1=O`, the concentration for half-maximal inhibition (IC50) (in test [1]; against Histone deacetylase 3 [6]; against Histone deacetylase 1 [7]; against Histone deacetylase 8) was > 30 µM in each case. Moreover, the inhibition against Histone deacetylase 1 [2] is 2.24%; at Histone deacetylase 3 [3] it was 0%; in test [4], 0%; in test [5], 3.18%.

With `CC(C)(C)Oc1ccc(C[C@@H]2N=C(c3ccccc3)c3ccccc3N(CCCCC(=O)O)C2=O)cc1`, the IC50 (in test [1]; against Histone deacetylase 3 [6]; against Histone deacetylase 1 [7]; against Histone deacetylase 8) was > 30 µM each time. Besides, the inhibition was determined as 4.65% at Histone deacetylase 1 [2], 1.05% against Histone deacetylase 3 [3], 0.28% in test [4] and 2.15% in test [5].

As to `O=C(C[C@@H]1N=C(c2ccccc2)c2ccccc2NC1=O)NO`, the half-maximal inhibitory concentration (IC50) (in test [1]; at Histone deacetylase 3 [6]; against Histone deacetylase 1 [7]; against Histone deacetylase 8) was > 30 µM in each case. In addition, the inhibition at Histone deacetylase 1 [2] is 9.99%; against Histone deacetylase 3 [3], 0%; in test [4], 0.88%; in test [5], 12.2%.

`CC(C)(C)OC(=O)n1c(C[C@@H]2N=C(c3ccccc3)c3ccccc3N(CCCCC(=O)NO)C2=O)cc2ccccc21`: the concentration for half-maximal inhibition (IC50) in test [1] was 6.92 µM; on Histone deacetylase 3 [6], 5.21 µM; against Histone deacetylase 1 [7], > 30 µM; on Histone deacetylase 8, 8.39 µM. Besides, the inhibition against Histone deacetylase 1 [2] was 46.9%; at Histone deacetylase 3 [3] it was 93.1%; in test [4], 85%; in test [5], 79.7%.

On to `C[C@H](OCc1ccccc1)[C@@H]1N=C(c2ccccc2)c2ccccc2NC1=O`, for which the IC50 (in test [1]; against Histone deacetylase 3 [6]; against Histone deacetylase 1 [7]; at Histone deacetylase 8) was > 30 µM each time. The inhibition came to 1.5% at Histone deacetylase 1 [2], 2.49% on Histone deacetylase 3 [3], 3.08% in test [4] and 9.14% in test [5].

Take `CC[C@H](C)[C@@H]1N=C(c2ccccc2)c2ccccc2N(CCCCC(=O)O)C1=O`: the IC50 (in test [1]; at Histone deacetylase 3 [6]; on Histone deacetylase 1 [7]; on Histone deacetylase 8) was > 30 µM throughout. Further, the inhibition on Histone deacetylase 1 [2] came out at 0%; against Histone deacetylase 3 [3], 0%; in test [4], 0%; in test [5] it was 3.99%.

As to `CC[C@H](C)[C@@H]1N=C(c2ccccc2)c2ccccc2N(CCCCC(=O)OC)C1=O`, the IC50 (in test [1]; at Histone deacetylase 3 [6]; on Histone deacetylase 1 [7]; at Histone deacetylase 8) was > 30 µM throughout. For the same compound, the inhibition on Histone deacetylase 1 [2] turned out to be 2.83%; against Histone deacetylase 3 [3] it was 0%; in test [4] it was 0%; in test [5], 2.38%.

In the case of `NC(=O)C[C@@H]1N=C(c2ccccc2)c2ccccc2N(CCCCC(=O)NO)C1=O`, the half-inhibitory concentration (IC50) in test [1] was 5.38 µM; on Histone deacetylase 3 [6] it was 3.1 µM; on Histone deacetylase 1 [7] it was 22.5 µM; against Histone deacetylase 8, > 30 µM. The inhibition at Histone deacetylase 1 [2] was 57.6%; on Histone deacetylase 3 [3], 90.9%; in test [4], 82.2%; in test [5], 26.2%.

As for `N=C(N)NCCC[C@@H]1N=C(c2ccccc2)c2ccccc2N(CCCCC(=O)NO)C1=O`, the IC50 in test [1] is 2.63 µM; at Histone deacetylase 3 [6], 0.22 µM; against Histone deacetylase 1 [7] it was 1.44 µM; on Histone deacetylase 8, > 30 µM. For the same compound, the inhibition at Histone deacetylase 1 [2] amounted to 91.8%; on Histone deacetylase 3 [3], 101%; in test [4], 91.2%; in test [5], 27.9%.

Regarding `C[C@H](OCc1ccccc1)[C@@H]1N=C(c2ccccc2)c2ccccc2N(CCCCC(=O)O)C1=O`, the concentration for half-maximal inhibition (IC50) (in test [1]; against Histone deacetylase 3 [6]; at Histone deacetylase 1 [7]; on Histone deacetylase 8) was > 30 µM throughout. Also, the inhibition against Histone deacetylase 1 [2] was 2.94%; on Histone deacetylase 3 [3], 0%; in test [4] it was 0%; in test [5], 15.4%.

In the case of `CC(C)(C)OC(=O)C[C@@H]1N=C(c2ccccc2)c2ccccc2N(CCCCC(=O)NO)C1=O`, the IC50 in test [1] is 6.43 µM; against Histone deacetylase 3 [6], 4.15 µM; against Histone deacetylase 1 [7], 15.7 µM; against Histone deacetylase 8, 22.4 µM. The inhibition was found to be 64.1% at Histone deacetylase 1 [2], 91.5% at Histone deacetylase 3 [3], 80.6% in test [4] and 62.3% in test [5].

With `CC[C@H](C)[C@@H]1N=C(c2ccccc2)c2ccccc2NC1=O`, the IC50 (in test [1]; on Histone deacetylase 3 [6]; against Histone deacetylase 1 [7]; at Histone deacetylase 8) was > 30 µM each time. Moreover, the inhibition at Histone deacetylase 1 [2] is 6.77%; at Histone deacetylase 3 [3] it was 0.56%; in test [4], 1.82%; in test [5] it was 0%.

For `CC(C)C[C@@H]1N=C(c2ccccc2)c2ccccc2N(CCCCC(=O)NO)C1=O`, the IC50 in test [1] is 2.33 µM; at Histone deacetylase 3 [6] it was 0.57 µM; against Histone deacetylase 1 [7], 5.9 µM; on Histone deacetylase 8, > 30 µM. Also, the inhibition on Histone deacetylase 1 [2] stood at 80.5%; at Histone deacetylase 3 [3], 98.5%; in test [4], 91.6%; in test [5] it was 45.2%.

Consider `COC(=O)CCCCN1C(=O)[C@H](Cc2cc3ccccc3n2C(=O)OC(C)(C)C)N=C(c2ccccc2)c2ccccc21`, for which the half-maximal inhibitory concentration (IC50) (in test [1]; against Histone deacetylase 3 [6]; against Histone deacetylase 1 [7]; against Histone deacetylase 8) was > 30 µM throughout. The inhibition on Histone deacetylase 1 [2] was determined as 1.64%; against Histone deacetylase 3 [3], 0%; in test [4] it was 0%; in test [5] it was 0%.

Regarding `CC(C)(C)Oc1ccc(C[C@@H]2N=C(c3ccccc3)c3ccccc3NC2=O)cc1`, the IC50 (in test [1]; on Histone deacetylase 3 [6]; against Histone deacetylase 1 [7]; against Histone deacetylase 8) was > 30 µM in each case. The inhibition turned out to be 4.79% at Histone deacetylase 1 [2], 0% against Histone deacetylase 3 [3], 0% in test [4] and 0% in test [5].

`O=C(CCCCN1C(=O)[C@H](Cc2cc3ccccc3[nH]2)N=C(c2ccccc2)c2ccccc21)NO`: the IC50 in test [1] is 1.95 µM; against Histone deacetylase 3 [6] it was 1.01 µM; at Histone deacetylase 1 [7] it was 16.8 µM; against Histone deacetylase 8, > 30 µM. Also, the inhibition against Histone deacetylase 1 [2] is 60%; against Histone deacetylase 3 [3] it was 98.9%; in test [4], 93.2%; in test [5], 34.1%.

Take `COC(=O)CCCCN1C(=O)[C@H](C(C)C)N=C(c2ccccc2)c2ccccc21`: the IC50 (in test [1]; against Histone deacetylase 3 [6]; against Histone deacetylase 1 [7]; against Histone deacetylase 8) was > 30 µM in each case. The inhibition at Histone deacetylase 1 [2] was found to be 12.5%; on Histone deacetylase 3 [3] it was 0%; in test [4], 0%; in test [5] it was 9.56%.

For the compound `O=C(CCCCN1C(=O)[C@@H](CS)N=C(c2ccccc2)c2ccccc21)NO`, the half-inhibitory concentration (IC50) came to 0.58 µM in test [1], 0.18 µM at Histone deacetylase 3 [6], 0.46 µM at Histone deacetylase 1 [7] and 8.11 µM against Histone deacetylase 8. In addition, the inhibition on Histone deacetylase 1 [2] is 97.3%; against Histone deacetylase 3 [3], 100%; in test [4], 96.9%; in test [5] it was 81.2%.
